In patent publication US10316017B2, “COT modulators and methods of use thereof” (Gilead Sciences, Inc., priority 2015, dated 2019) one finds IC50 and EC50 data, which are given here for 9 compounds.

The target in experiment [1] is T1, human Cot catalytic domain (30-397 amino acids) (Homo sapiens, UniProt P41279).
T1 construct: Purified recombinant human Cot catalytic domain (30-397 amino acids) was purchased from Cama Biosciences; purchased Cama Biosciences (so in the source)
The experiment in a line: High Throughput Cot Biochemical Assay (KinEASE TR-FRET). Conditions: read-out: IC50 HTRF. The procedure, abridged: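 Phosphorylation of 1 μM XL665-STK3 peptide by 5 nM Cot catalytic domain was measured by time-resolved FRET using a europium […] antibody. ATP was 400 μM; buffer was 10 mM MOPS pH 7.0 with Mg2+ and DTT.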
On the technique in general: In TR-FRET formats the signal depends on donor and acceptor labels being close together.

Experiment [2] has as its system TNFα production in LPS-stimulated human monocytes. The experiment in a line: Cot Monocyte TNFα Cell Based Assay. To be noted: Homo sapiens, Monocyte, read-out: EC50 TNF. The procedure, abridged:
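Percent-of-control values derive from TR-FRET ratios of TNFα in spun-down media, referenced to unstimulated and LPS-stimulated wells. Exposure: 1 h compound preincubation, then 50 pg/ml LPS for 4 h, both at 37 °C, with 0.5% final DMSO.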

Where [3] appears, read: Cot KinEASE TR-FRET, 400 μM ATP.
[4] abbreviates: LPS-stimulated human monocytes, TNFα TR-FRET.
The mark [5] stands for this setting: Cot biochemical HTRF (KinEASE TR-FRET) assay.
[6] abbreviates: TNFα in LPS-stimulated human monocytes.
[7] abbreviates: Cot KinEASE TR-FRET (HTRF) biochemical assay, 400 μM ATP.

Like-named read-outs stand apart in the source and are kept apart here. Where only a bound is given, the exact number is not on record here.

T1 sequence (P41279 30-397): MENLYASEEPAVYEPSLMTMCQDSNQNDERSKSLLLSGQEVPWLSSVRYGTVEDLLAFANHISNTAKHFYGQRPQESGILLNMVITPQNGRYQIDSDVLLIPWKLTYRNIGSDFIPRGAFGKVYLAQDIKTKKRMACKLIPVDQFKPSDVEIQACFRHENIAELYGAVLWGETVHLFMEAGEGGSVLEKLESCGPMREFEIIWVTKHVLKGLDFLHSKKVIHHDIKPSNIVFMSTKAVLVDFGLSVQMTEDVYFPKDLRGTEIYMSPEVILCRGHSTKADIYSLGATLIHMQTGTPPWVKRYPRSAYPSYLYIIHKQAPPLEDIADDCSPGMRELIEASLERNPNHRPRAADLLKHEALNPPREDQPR

Consider `[2H]C(Nc1cc(C#N)c2ncc(C#N)c(NCC(C)(C)C)c2c1)(c1cn(C2(C(F)F)CC2)nn1)c1ccccc1Cl` (stereo not drawn) [Example 1111, 6-(((2-chlorophenyl)(1-(1-(difluoromethyl)cyclopropyl)-1H-1,2,3-triazol-4-yl)methyl-d)amino)-4-(neopentylamino)-quinoline-3,8-dicarbonitrile], for which the IC50 in experiment [1] (setting [3]) was determined as 0.013 µM. In experiment [2] (setting [4]), the EC50 came out at 0.098 µM.
For the compound `Cn1ccnc1C(Nc1cc(Cl)c2ncc(C#N)c(Nc3ccc(F)c(Cl)c3)c2c1)c1ccc(F)cc1` (stereo not drawn) [Example 847, 8-chloro-4-((3-chloro-4-fluorophenyl)amino)-6-(((4-fluorophenyl)(1-methyl-1H-imidazol-2-yl)methyl)amino)quinoline-3-carbonitrile], in experiment [1] (setting [5]), the IC50 is 0.366 µM. In experiment [2] (setting [6]), the EC50 turned out to be 7.86 µM.
Take `[2H][C@](Nc1cc(Cl)c2ncc(C#N)c(Nc3cnc(F)c(F)c3)c2c1)(c1ccc(Cl)cc1)c1c[nH]nn1` [Example 387, (S)-8-chloro-6-(((4-chlorophenyl)(1H-1,2,3-triazol-4-yl)methyl-d)amino)-4-((5,6-difluoropyridin-3-yl)amino)quinoline-3-carbonitrile]: in experiment [1] (setting [7]), the concentration for half-maximal inhibition (IC50) stood at 0.05 µM. For the same compound, the EC50 in experiment [2] (setting [6]) was 0.809 µM.
On the same counts, the results for `[2H][C@](Nc1cc(-c2cccnc2)c2ncc(C#N)c(NCC(C)(C)C)c2c1)(c1ccc(F)cc1)c1cn(C2CC2)nn1` [Example 170, (S)-6-(((1-cyclopropyl-1H-1,2,3-triazol-4-yl)(4-fluorophenyl)methyl-d)amino)-4-(neopentylamino)-8-(pyridin-3-yl)quinoline-3-carbonitrile] are 0.048 µM and 0.562 µM.
With `CC(C)(C)CNc1c(C#N)cnc2c(C#N)cc(N[C@@H](c3ccc(F)cc3)c3cn(C4(C#N)CC4)nn3)cc12` [Example 976, (S)-6-(((1-(1-cyanocyclopropyl)-1H-1,2,3-triazol-4-yl)(4-fluorophenyl)methyl)amino)-4-(neopentylamino)quinoline-3,8-dicarbonitrile], in experiment [1] (setting [3]), the IC50 stood at 0.006 µM. Also, in experiment [2] (setting [4]), the EC50 amounted to 0.058 µM.
`CC(C)(C)N1CCC(n2cc([C@@H](Nc3cc(Cl)c4ncc(C#N)c(Nc5ccc(F)c(F)c5F)c4c3)c3ccc(Cl)cc3)nn2)CC1` [Example 650, (S)-6-(((1-(1-(tert-butyl)piperidin-4-yl)-1H-1,2,3-triazol-4-yl)(4-chlorophenyl)methyl)amino)-8-chloro-4-((2,3,4-trifluorophenyl)amino)quinoline-3-carbonitrile]: the IC50 in experiment [1] (setting [5]) turned out to be 0.032 µM. Besides, in experiment [2] (setting [6]), the EC50 came to 0.661 µM.
As for `[2H][C@](Nc1cc(Cl)c2ncc(C#N)c(Nc3cccc(Cl)c3C#N)c2c1)(c1ccc(F)cc1)c1cn(C2CC2)nn1` [Example 934, (S)-8-chloro-4-((3-chloro-2-cyanophenyl)amino)-6-(((1-cyclopropyl-1H-1,2,3-triazol-4-yl)(4-fluorophenyl)methyl-d)amino)quinoline-3-carbonitrile], the 50% inhibitory concentration (IC50) in experiment [1] (setting [3]) came out at 0.371 µM. Further, the EC50 in experiment [2] (setting [4]) was not below 1 µM.
For the compound `[2H]C(Nc1cc(Cl)c2ncc(C#N)c(N[C@H](CC)c3ccccc3)c2c1)(c1ccccc1Cl)c1nn[nH]c1C` (stereo partly drawn) [Example 326, 8-chloro-6-(((2-chlorophenyl) (5-methyl-1H-1,2,3-triazol-4-yl)methyl-d)amino)-4-(((R)-1-phenylpropyl)amino)quinoline-3-carbonitrile], the IC50 in experiment [1] (setting [7]) came to 0.199 µM. Moreover, the EC50 in experiment [2] (setting [6]) was determined as 1.97 µM.
For `CC(C)n1cc([C@@H](Nc2cc(Cl)c3ncc(C#N)c(Nc4ccc(F)c(Cl)c4)c3c2)c2cccc(CN(C)CCN(C)C)c2)nn1` [Example 710, (S)-8-chloro-4-((3-chloro-4-fluorophenyl)amino)-6-(((3-(((2-(dimethylamino)ethyl)(methyl)amino)methyl)phenyl) (1-isopropyl-1H-1,2,3-triazol-4-yl)methyl)amino) quinoline-3-carbonitrile], the IC50 in experiment [1] (setting [5]) was determined as 0.02 µM. In addition, the EC50 in experiment [2] (setting [6]) is 0.352 µM.

One may read the IC50 as the midpoint of a concentration-inhibition curve. Usually EC50 stands for the concentration at which the effect is half-maximal.
